IC50 data for 35 molecules are collected here from patent US12565497B2 (Hoffmann-La Roche Inc., priority 2020, dated 2026).

The structures appear in SMILES notation.

The target in the assay is Recombinant human Mat2a (Homo sapiens (Human), UniProt P31153). The assay can be described thus: Determination of Mat2A activity (384 well absorbance-based assay, Biomol Green). It counts as biochemical. The following applies: 12.5 nM Mat2A, 100 μM ATP and Methionine, 2% DMSO, 120 minutes at RT, absorbance at 635 nm; read-out: MAT2A_LEC IC50 (uM) (Num). The method, then: Determination of Mat2A Activity
Recombinant human Mat2a, sequence (P31153 whole entry): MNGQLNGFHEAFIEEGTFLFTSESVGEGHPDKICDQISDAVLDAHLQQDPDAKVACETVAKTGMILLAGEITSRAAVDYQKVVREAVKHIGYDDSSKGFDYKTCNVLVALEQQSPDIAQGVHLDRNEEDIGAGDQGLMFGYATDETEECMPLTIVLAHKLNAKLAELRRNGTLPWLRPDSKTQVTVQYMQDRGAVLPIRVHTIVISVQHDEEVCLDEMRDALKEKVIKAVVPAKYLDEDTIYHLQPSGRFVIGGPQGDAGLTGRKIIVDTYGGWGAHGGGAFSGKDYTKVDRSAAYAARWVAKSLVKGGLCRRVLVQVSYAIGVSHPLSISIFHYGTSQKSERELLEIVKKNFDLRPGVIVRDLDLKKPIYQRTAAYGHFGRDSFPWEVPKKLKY
Measurement of Mat2A inhibition is performed in 384 well format absorbance-based assay. Recombinant human Mat2a (12.5 nM) and serial diluted compounds in DMSO (range of concentrations from 10 μM to 508 pM) or controls (DMSO) are incubated for 15 minutes at room temperature (RT) in assay buffer containing 50 mM HEPES pH 7.5, 50 mM KCl, 50 mM MgCl2, 0.01%Tween 20 and 10 mM DTT. The reaction is initiated by the addition of the combined substrates ATP and Methionine, each at a final concentration of 100 μM. Final assay condition are 12.5 nM Mat2A, 100 μM ATP and Methionine Substrates and 2% DMSO. After 120 minutes of incubation at RT, the reaction is stopped by the addition of Biomol Green. The absorbance signal is measured at λ=635 nm with a multiplate reader (BMG Pherastar reader or equivalent) after 30 min of equilibration at RT.

For the molecule `CNC(=O)c1c(F)cc2[nH]nc(C3CC3)c2c1-c1ccc(S(C)(=O)=O)c(C)c1` [Example 88, 3-cyclopropyl-6-fluoro-N-methyl-4-(3-methyl-4-(methylsulfonyl)phenyl)-1H-indazole-5-carboxamide], the IC50 was below 0.013 µM. Next, `Cc1cc(-c2c(C#N)c(Cl)cc3[nH]nc(C4CC4)c23)ccc1S(C)(=O)=O` [Example 90, 6-chloro-3-cyclopropyl-4-(3-methyl-4-methylsulfonylphenyl)-1H-indazole-5-carbonitrile]: below 0.013 µM; `Cc1cc(-c2nccc3[nH]nc(C4CC4)c23)ccc1S(=O)(=O)C1CC1` [Example 7, 3-cyclopropyl-4-(4-(cyclopropylsulfonyl)-3-methylphenyl)-1H-pyrazolo[4,3-c]pyridine]: 0.046 µM; `Cc1cc(-c2nccc3[nH]nc(C4COC4)c23)ccc1S(C)(=O)=O` [Example 28, 4-(3-methyl-4-methylsulfonyl-phenyl)-3-(oxetan-3-yl)-1H-pyrazolo[4,3-c]pyridine]: 0.51 µM. Consider `Cc1cc(-c2nccc3[nH]nc(OC(F)F)c23)ccc1S(=O)(=O)CCO` [Example 36, 2-[4-[3-(difluoromethoxy)-1H-pyrazolo[4,3-c]pyridin-4-yl]-2-methyl-phenyl]sulfonylethanol], for which the IC50 amounted to 0.051 µM. The result for `Cc1cc(-c2c(C#N)ncc3[nH]nc(C4CC4)c23)c(F)cc1S(C)(=O)=O` [Example 47, 3-cyclopropyl-4-(2-fluoro-5-methyl-4-methylsulfonyl-phenyl)-1H-pyrazolo[3,4-c]pyridine-5-carbonitrile] reads 0.017 µM; that for `Cc1cc(-c2nc(Cl)cc3[nH]nc(C4CC4)c23)ccc1S(C)(=O)=O` [Example 34, 6-chloro-3-cyclopropyl-4-(3-methyl-4-methylsulfonylphenyl)-1H-pyrazolo[4,3-c]pyridine], below 0.013 µM; that for `Cc1cc(-c2nccc3[nH]nc(C4CC4)c23)c(F)cc1S(C)(=O)=O` [Example 21, 3-cyclopropyl-4-(2-fluoro-5-methyl-4-methylsulfonyl-phenyl)-1H-pyrazolo[4,3-c]pyridine], 0.056 µM. The result for `Cc1cc(-c2c(C3CC3)ncc3[nH]nc(C4CC4)c23)ccc1S(C)(=O)=O` [Example 85] reads 0.02 µM. The result for `CNC(=O)c1ncc2[nH]nc(C3CC3)c2c1-c1ccc(S(C)(=O)=O)c(C(F)F)c1` [Example 51, 3-cyclopropyl-4-[3-(difluoromethyl)-4-methylsulfonyl-phenyl]-N-methyl-1H-pyrazolo[3,4-c]pyridine-5-carboxamide] reads below 0.013 µM.

For `Cc1cc(-c2c(C(N)=O)ncc3[nH]nc(OC(F)F)c23)ccc1S(C)(=O)=O` [Example 98, 3-(difluoromethoxy)-4-(3-methyl-4-methylsulfonyl-phenyl)-1H-pyrazolo[3,4-c]pyridine-5-carboxamide], the IC50 is below 0.013 µM. Next, `Cc1cc(-c2c(C#N)ccc3[nH]nc(C4CC4)c23)ccc1S(C)(=O)=O` [Example 63, 3-cyclopropyl-4-(3-methyl-4-methylsulfonylphenyl)-1H-indazole-5-carbonitrile]: below 0.013 µM; `CC(=O)NCCCCNc1cnc(-c2ccc(S(C)(=O)=O)c(C)c2)c2c(C3CC3)n[nH]c12` [Example 103, N-[4-[[3-cyclopropyl-4-(3-methyl-4-methylsulfonyl-phenyl)-1H-pyrazolo[4,3-c]pyridin-7-yl]amino]butyl]acetamide]: 0.04 µM.

For the molecule `CS(=O)(=O)c1ccc(-c2nccc3[nH]nc(C(F)(F)F)c23)cc1` [Example 11, 4-(4-(methylsulfonyl)phenyl)-3-(trifluoromethyl)-1H-pyrazolo[4,3-c]pyridine], the IC50 came out at 0.28 µM.

As for `Cc1cc(-c2c(S(=O)(=O)C3CC3)ccc3[nH]nc(OC(F)F)c23)ccc1S(C)(=O)=O` [Example 118, 5-cyclopropylsulfonyl-3-(difluoromethoxy)-4-(3-methyl-4-methylsulfonyl-phenyl)-1H-indazole], the IC50 was below 0.013 µM. Take `CNC(=O)c1ncc2[nH]nc(OC(F)F)c2c1-c1ccc(S(C)(=O)=O)c(C)c1` [Example 110, 3-(difluoromethoxy)-N-methyl-4-(3-methyl-4-methylsulfonyl-phenyl)-1H-pyrazolo[3,4-c]pyridine-5-carboxamide]: the IC50 is below 0.013 µM.

On to `Cc1cc(-n2c(=O)c(C)cc3[nH]nc(C4CC4)c32)ccc1S(C)(=O)=O` [Example 80, 3-cyclopropyl-6-methyl-4-(3-methyl-4-methylsulfonyl-phenyl)-1H-pyrazolo[4,3-b]pyridin-5-one], for which the IC50 was 0.031 µM. Next, `COc1ncc2[nH]nc(C3CC3)c2c1-c1ccc(S(C)(=O)=O)c(C)c1` [Example 24, 3-cyclopropyl-5-methoxy-4-(3-methyl-4-(methylsulfonyl)phenyl)-1H-pyrazolo[3,4-c]pyridine]: below 0.013 µM. Next, `Cc1cc(-c2c(S(C)(=O)=O)ccc3[nH]nc(OC(F)F)c23)c(F)cc1S(C)(=O)=O` [Example 119, 3-(difluoromethoxy)-4-(2-fluoro-5-methyl-4-methylsulfonyl-phenyl)-5-methylsulfonyl-1H-indazole]: 0.02 µM. Next, `CNC(=O)c1ncc2[nH]nc(OC(F)F)c2c1-c1ccc(S(=O)(=O)C(F)F)c(C)c1` [Example 108]: 0.015 µM. For `Cc1cc([S+](C)[O-])c(C(F)F)cc1-c1c(C#N)ncc2[nH]nc(OC(F)F)c12` (centres unmarked) [Example 53, 3-(difluoromethoxy)-4-[5-(difluoromethyl)-2-methyl-4-methylsulfinyl-phenyl]-1H-pyrazolo[3,4-c]pyridine-5-carbonitrile], the IC50 amounted to 0.062 µM. Turning to `Cc1cc(-c2c(S(C)(=O)=O)ccc3[nH]nc(C(F)(F)F)c23)ccc1S(C)(=O)=O` [Example 44, 4-(3-methyl-4-(methylsulfonyl)phenyl)-5-(methylsulfonyl)-3-(trifluoromethyl)-1H-indazole], the IC50 came out at 0.017 µM.

Take `Cc1cc(-c2c(C#N)ccc3[nH]cc(C4CC4)c23)ccc1S(C)(=O)=O` [Example 45, 3-cyclopropyl-4-(3-methyl-4-methylsulfonylphenyl)-1H-indole-5-carbonitrile]: the IC50 turned out to be 0.02 µM.

`CN=S(C)(=O)c1ccc2[nH]nc(C3CC3)c2c1-c1ccc(S(C)(=O)=O)c(C)c1` (centres unmarked) [Example 113, [3-cyclopropyl-4-(3-methyl-4-methylsulfonyl-phenyl)-1H-indazol-5-yl]-methyl-methylimino-oxo-λ^6-sulfane]: the IC50 amounted to 0.31 µM. The result for `Cc1cc(-n2c(=O)ccc3[nH]cc(C4CC4)c32)ccc1S(C)(=O)=O` [Example 92, 3-cyclopropyl-4-(3-methyl-4-methylsulfonyl-phenyl)-1H-pyrrolo[3,2-b]pyridin-5-one] reads 0.029 µM; that for `Cc1cc(-c2nccc3[nH]nc(C#N)c23)ccc1S(C)(=O)=O` [Example 61, 4-(3-methyl-4-(methylsulfonyl)phenyl)-1H-pyrazolo[4,3-c]pyridine-3-carbonitrile], 0.25 µM; that for `Cc1cc(-c2c(OC(F)F)ncc3[nH]nc(C4CC4)c23)ccc1S(C)(=O)=O` [Example 82, 3-cyclopropyl-5-(difluoromethoxy)-4-(3-methyl-4-(methylsulfonyl)phenyl)-1H-pyrazolo[3,4-c]pyridine], below 0.013 µM. Next, `Cc1cc(-c2nccc3[nH]nc(C4CC4)c23)ccc1S(=O)(=O)C1COC1` [Example 15, 3-cyclopropyl-4-(3-methyl-4-(oxetan-3-ylsulfonyl)phenyl)-1H-pyrazolo[4,3-c]pyridine]: 0.27 µM; `O=S(=O)(c1ccc(-c2nccc3[nH]nc(C4CC4)c23)cc1Cl)C1CC1` [Example 8, 4-(3-chloro-4-(cyclopropylsulfonyl)phenyl)-3-cyclopropyl-1H-pyrazolo[4,3-c]pyridine]: 0.37 µM; `Cc1cc(-c2nccc3[nH]nc(Br)c23)ccc1S(C)(=O)=O` [Example 56, 3-bromo-4-(3-methyl-4-(methylsulfonyl)phenyl)-1H-pyrazolo[4,3-c]pyridine]: 0.19 µM. For `COc1ncc2[nH]nc(C(F)(F)F)c2c1-c1ccc(S(C)(=O)=O)c(C(F)F)c1` [Example 54, 4-[3-(difluoromethyl)-4-methylsulfonyl-phenyl]-5-methoxy-3-(trifluoromethyl)-1H-pyrazolo[3,4-c]pyridine], the IC50 is 0.015 µM. The result for `Cc1cc(-c2nccc3[nH]nc(OC(F)F)c23)ccc1S(=O)(=O)CC1CC1` [Example 29, 4-[4-(cyclopropylmethylsulfonyl)-3-methyl-phenyl]-3-(difluoromethoxy)-1H-pyrazolo[4,3-c]pyridine] reads 0.29 µM; that for `Cc1cc(-c2nccc3[nH]cc(C4CC4)c23)ccc1S(C)(=O)=O` [Example 14, 3-cyclopropyl-4-(3-methyl-4-(methylsulfonyl)phenyl)-1H-pyrrolo[3,2-c]pyridine], 0.099 µM. In the case of `Cc1cc(-c2c(C#N)ncc3[nH]nc(C4CC4)c23)ccc1S(C)(=O)=O` [Example 16, 3-cyclopropyl-4-(3-methyl-4-(methylsulfonyl)phenyl)-1H-pyrazolo[3,4-c]pyridine-5-carbonitrile], the IC50 is below 0.013 µM. The result for `COc1n[nH]c2ccnc(-c3ccc(S(C)(=O)=O)c(C)c3)c12` [Example 58, 3-methoxy-4-(3-methyl-4-(methylsulfonyl)phenyl)-1H-pyrazolo[4,3-c]pyridine] reads 0.24 µM.

The IC50 is the concentration that gives 50% inhibition.
